{"source": "patent US7595079B2", "about": "“Nutritional conjunctive support therapy for recovery in animals following stress or illness” (Bomac Vets Plus, Inc., priority 2005, dated 2009)", "origin": "cited, not measured here", "key": {"[1]": {"system": "jejunum villus", "details": "weaning of pigs; target value ≧339"}, "[2]": {"system": "small intestinal crypt", "details": "E. coli induced diarrhea in calves; target value ≦100"}, "[3]": {"system": "jejunum crypt", "details": "malnourished rats; target value ≦150"}}, "data": [{"smiles": "NC(=O)CC[C@H](N)C(=O)O", "note": "[Glutamine]", "values": [{"measurement": "Jejunum Villus Height", "setting": "[1]", "result": 358, "unit": "um"}, {"measurement": "Mid plus Distal small intestinal Crypt width (mean % of baseline control)", "setting": "[2]", "result": "92.2 mean % of baseline control"}, {"measurement": "Jejunum Crypt depth", "setting": "[3]", "result": 134, "unit": "um"}]}]}
